Assay results reported in the NIST ThermoML archive (doi:10.1016/j.fluid.2008.09.004).

Tests used:
[1] = molar heat capacity at constant pressure; xn = mol fraction of the nth substance listed; settings: 101 kPa, Liquid, Small sample (50 mg) DSC
[2] = xn = mol fraction of the nth substance listed; settings: 101 kPa, Liquid, Vibrating tube method

CCCCn1cc[n+](C)c1.COS(=O)(=O)[O-] [1-butyl-3-methylimidazolium methyl sulfate] + CCO
Settings	mass density, [2] [kg/m3]	molar heat capacity at constant pressure, [1] [J/K/mol]
293.15 K, x1 = 0.0511	860.9	128.1
293.15 K, x1 = 0.1025	916.2	143.3
293.15 K, x1 = 0.199	–	171.7
293.15 K, x1 = 0.2016	995	–
293.15 K, x1 = 0.3106	1055	204.1
293.15 K, x1 = 0.4058	1093.4	232.2
293.15 K, x1 = 0.5057	1124.7	262.1
293.15 K, x1 = 0.6005	1147.9	290.9
293.15 K, x1 = 0.69	1166.6	318.2
293.15 K, x1 = 0.7834	1182.5	346.9
293.15 K, x1 = 0.8815	1196.6	377.1
293.15 K, x1 = 0.9368	1203.5	394
298.15 K, x1 = 0.0511	856.7	130
298.15 K, x1 = 0.1025	912.2	145.1
298.15 K, x1 = 0.199	–	173.4
298.15 K, x1 = 0.2016	991.2	–
298.15 K, x1 = 0.3106	1051.3	205.8
298.15 K, x1 = 0.4058	1089.8	234
298.15 K, x1 = 0.5057	1121.2	263.9
298.15 K, x1 = 0.6005	1144.5	292.8
298.15 K, x1 = 0.69	1163.1	320.3
298.15 K, x1 = 0.7834	1179.1	349.1
298.15 K, x1 = 0.8815	1193.2	379.5
298.15 K, x1 = 0.9368	1200.2	396.5
303.15 K, x1 = 0.0511	852.6	131.8
303.15 K, x1 = 0.1025	908.2	146.7
303.15 K, x1 = 0.199	–	174.9
303.15 K, x1 = 0.2016	987.4	–
303.15 K, x1 = 0.3106	1047.6	207.2
303.15 K, x1 = 0.4058	1086.3	235.6
303.15 K, x1 = 0.5057	1117.7	265.6
303.15 K, x1 = 0.6005	1141	294.7
303.15 K, x1 = 0.69	1159.7	322.3
303.15 K, x1 = 0.7834	1175.7	351.2
303.15 K, x1 = 0.8815	1189.9	381.7
303.15 K, x1 = 0.9368	1196.9	398.9
308.15 K, x1 = 0.0511	848.5	133.5
308.15 K, x1 = 0.1025	904.3	148.3
308.15 K, x1 = 0.199	–	176.4
308.15 K, x1 = 0.2016	983.6	–
308.15 K, x1 = 0.3106	1043.9	208.6
308.15 K, x1 = 0.4058	1082.7	237.1
308.15 K, x1 = 0.5057	1114.2	267.3
308.15 K, x1 = 0.6005	1137.6	296.5
308.15 K, x1 = 0.69	1156.3	324.2
308.15 K, x1 = 0.7834	1172.3	353.3
308.15 K, x1 = 0.8815	1186.6	383.9
308.15 K, x1 = 0.9368	1193.6	401.2
313.15 K, x1 = 0.0511	844.4	135
313.15 K, x1 = 0.1025	900.2	149.7
313.15 K, x1 = 0.199	–	177.6
313.15 K, x1 = 0.2016	979.8	–
313.15 K, x1 = 0.3106	1040.3	209.9
313.15 K, x1 = 0.4058	1079.1	238.5
313.15 K, x1 = 0.5057	1110.7	268.9
313.15 K, x1 = 0.6005	1134.1	298.2
313.15 K, x1 = 0.69	1152.9	326.1
313.15 K, x1 = 0.7834	1169	355.3
313.15 K, x1 = 0.8815	1183.3	386
313.15 K, x1 = 0.9368	1190.3	403.3
318.15 K, x1 = 0.0511	840.1	136.6
318.15 K, x1 = 0.1025	896.1	151
318.15 K, x1 = 0.199	–	178.8
318.15 K, x1 = 0.2016	975.9	–
318.15 K, x1 = 0.3106	1036.6	211.2
318.15 K, x1 = 0.4058	1075.5	239.8
318.15 K, x1 = 0.5057	1107.2	270.5
318.15 K, x1 = 0.6005	1130.7	299.9
318.15 K, x1 = 0.69	1149.5	327.9
318.15 K, x1 = 0.7834	1165.6	357.3
318.15 K, x1 = 0.8815	1180	388
318.15 K, x1 = 0.9368	1187	405.4

CCCCn1cc[n+](C)c1.F[B-](F)(F)F [1-butyl-3-methylimidazolium tetrafluoroborate] + CCO
Settings	mass density, [2] [kg/m3]	molar heat capacity at constant pressure, [1] [J/K/mol]
293.15 K, x1 = 0.0987	903	150.5
293.15 K, x1 = 0.1923	976.5	174.4
293.15 K, x1 = 0.3004	1037.8	197.8
293.15 K, x1 = 0.3885	1075.8	219.8
293.15 K, x1 = 0.4865	1108.8	240.1
293.15 K, x1 = 0.573	1132.8	258.3
293.15 K, x1 = 0.6738	1155.4	281.8
293.15 K, x1 = 0.7531	1170.9	300.8
293.15 K, x1 = 0.8821	1191.8	330.9
298.15 K, x1 = 0.0987	898.9	150
298.15 K, x1 = 0.1923	972.5	173.6
298.15 K, x1 = 0.3004	1033.9	198.8
298.15 K, x1 = 0.3885	1071.9	219.6
298.15 K, x1 = 0.4865	1105	241.2
298.15 K, x1 = 0.573	1129.1	259.7
298.15 K, x1 = 0.6738	1151.7	283.5
298.15 K, x1 = 0.7531	1167.2	302.6
298.15 K, x1 = 0.8821	1188.2	333
303.15 K, x1 = 0.0987	894.8	149.9
303.15 K, x1 = 0.1923	968.5	173.5
303.15 K, x1 = 0.3004	1030	199.7
303.15 K, x1 = 0.3885	1068	219.9
303.15 K, x1 = 0.4865	1101.2	242.3
303.15 K, x1 = 0.573	1125.3	261.1
303.15 K, x1 = 0.6738	1148	285.2
303.15 K, x1 = 0.7531	1163.5	304.3
303.15 K, x1 = 0.8821	1184.6	335.1
308.15 K, x1 = 0.0987	890.8	150.3
308.15 K, x1 = 0.1923	964.6	174.2
308.15 K, x1 = 0.3004	1026.1	200.6
308.15 K, x1 = 0.3885	1064.2	220.6
308.15 K, x1 = 0.4865	1097.4	243.4
308.15 K, x1 = 0.573	1121.6	262.4
308.15 K, x1 = 0.6738	1144.4	286.9
308.15 K, x1 = 0.7531	1159.9	306.2
308.15 K, x1 = 0.8821	1181	337.2
313.15 K, x1 = 0.0987	886.6	151.1
313.15 K, x1 = 0.1923	960.5	175.6
313.15 K, x1 = 0.3004	1022.2	201.4
313.15 K, x1 = 0.3885	1060.4	221.7
313.15 K, x1 = 0.4865	1093.6	244.4
313.15 K, x1 = 0.573	1117.9	263.7
313.15 K, x1 = 0.6738	1140.7	288.5
313.15 K, x1 = 0.7531	1156.3	308
313.15 K, x1 = 0.8821	1177.4	339.3
318.15 K, x1 = 0.0987	882.4	152.4
318.15 K, x1 = 0.1923	956.5	177.8
318.15 K, x1 = 0.3004	1018.2	202.3
318.15 K, x1 = 0.3885	1056.5	223.3
318.15 K, x1 = 0.4865	1089.8	245.6
318.15 K, x1 = 0.573	1114.2	265.1
318.15 K, x1 = 0.6738	1137.1	290.1
318.15 K, x1 = 0.7531	1152.7	309.9
318.15 K, x1 = 0.8821	1173.8	341.4
